The values that follow are results of earlier work, collected in paper PMC8025584, “Identification of multipotent drugs for COVID-19 therapeutics with the evaluation of their SARS-CoV2 inhibitory activity” (Computational and Structural Biotechnology Journal, 2021).

Structures are written as SMILES. Structures can show the parent of a compound that is named as a salt. Where two headings read alike, the source gives them in different places.

The test system of this data set is differentially expressed human proteins in COVID-19. The settings on record: cited from earlier work.
[1] abbreviates: gene HCK, drug-gene interaction listed in DGIdb export, ref DGIdb.
The mark [2] stands for this setting: gene CACNA1A, drug-gene interaction listed in DGIdb export, ref DGIdb.

Turning to `CC1=NS(=O)(=O)c2cc(Cl)ccc2N1` [DIAZOXIDE], under “gene CA1, ref DGIdb”, the interaction_types result was “inhibitor”. For `NS(=O)(=O)c1cc(Cl)c(Cl)c(S(N)(=O)=O)c1` [DICHLORPHENAMIDE], for the setting “gene CA1, ref DGIdb”, the interaction_types entry was “inhibitor”.

Turning to `CC(=O)O[C@@]12CO[C@@H]1C[C@H](O)[C@@]1(C)C(=O)[C@H](O)C3=C(C)[C@@H](OC(=O)[C@H](O)[C@@H](NC(=O)OC(C)(C)C)c4ccccc4)C[C@@](O)([C@@H](OC(=O)c4ccccc4)[C@H]21)C3(C)C` [DOCETAXEL, reference compound], for the setting “gene TUBA4A, ref DGIdb”, the interaction_types result is on record as “inhibitor”. Turning to `CC/C=C\C/C=C\C/C=C\C/C=C\C/C=C\C/C=C\CCC(=O)O` [DOCONEXENT], the interaction_types result (gene RXRB, ref DGIdb) is reported as “activator”. `CCN[C@H]1C[C@H](C)S(=O)(=O)c2sc(S(N)(=O)=O)cc21` [DORZOLAMIDE]: the interaction_types result (gene CA1, ref DGIdb) was “inhibitor”. Take `COc1cc2nc(N3CCN(C(=O)C4COc5ccccc5O4)CC3)nc(N)c2cc1OC` (stereo not shown) [DOXAZOSIN]: under “gene KCNH7, ref DGIdb”, the interaction_types entry is recorded as “inhibitor”. As for `C[C@H]1c2cccc(O)c2C(=O)C2=C(O)[C@]3(O)C(=O)C(C(N)=O)=C(O)[C@@H](N(C)C)[C@@H]3[C@@H](O)[C@@H]21` [DOXYCYCLINE], for the setting “gene MMP8, ref DGIdb”, the interaction_types entry was “inhibitor”. For the molecule `CCCCc1oc2ccc(NS(C)(=O)=O)cc2c1C(=O)c1ccc(OCCCN(CCCC)CCCC)cc1` [DRONEDARONE HYDROCHLORIDE], where the note is “gene KCNJ2, ref DGIdb”, the interaction_types result is “blocker”. For `CC/C(=C(\c1ccc(O)cc1)c1ccc(OCCNC)cc1)c1ccccc1` [ENDOXIFEN], the interaction_types result (gene CYP19A1, ref DGIdb) was “inhibitor”.

Take `Cn1cc(C2=C(c3cn(C)c4cc([N+](=O)[O-])ccc34)C(=O)NC2=O)c2ccccc21` [ENMD-981693]: the interaction_types result reads like this: (gene FGR, ref DGIdb) “inhibitor”; under setting [1], “inhibitor”. With `CNC[C@H](O)c1ccc(O)c(O)c1` [EPINEPHRINE], the interaction_types result is given as “agonist¦antagonist”.

With `C=C1C[C@@H]2CC[C@@]34C[C@H]5O[C@H]6[C@@H](O3)[C@H]3O[C@H](CC[C@@H]3O[C@H]6[C@H]5O4)CC(=O)C[C@@H]3[C@@H](OC)[C@@H](C[C@H](O)CN)O[C@H]3C[C@H]3O[C@@H](CC[C@@H]1O2)C[C@@H](C)C3=C` [ERIBULIN MESYLATE], where the note is “gene TUBA4A, ref DGIdb”, the interaction_types result is given as “inhibitor”. Consider `CCCCCC/C=C\CCCCCCCCCC(=O)N[C@H]1[C@H](OC[C@H]2O[C@H](OP(=O)(O)O)[C@H](NC(=O)CC(=O)CCCCCCCCCCC)[C@@H](OCCCCCCCCCC)[C@@H]2O)O[C@H](COC)[C@@H](OP(=O)(O)O)[C@@H]1OCC[C@@H](CCCCCCC)OC` [ERITORAN TETRASODIUM], for which the interaction_types entry (gene LY96, ref DGIdb) is on record as “antagonist”. For the molecule `C#CC1(OC(N)=O)CCCCC1` [ETHINAMATE], the interaction_types result was “inhibitor”. In the case of `CCOc1ccc2nc(S(N)(=O)=O)sc2c1` [ETHOXZOLAMIDE], where the note is “gene CA1, ref DGIdb”, the interaction_types result is “inhibitor”. On to `CC(O)(P(=O)(O)O)P(=O)(O)O` [ETIDRONIC ACID], for which the interaction_types entry (gene SLC25A4, ref DGIdb) was “inhibitor”. With `CCOC(=O)/C=C(C)/C=C/C=C(C)/C=C/c1c(C)cc(OC)c(C)c1C` [ETRETINATE], the interaction_types result (gene RXRB, ref DGIdb) is “agonist”. As to `N#Cc1ccc(C2CCCc3cncn32)cc1` (stereo not shown) [FADROZOLE], the interaction_types entry was “inhibitor”. Turning to `CCOc1ccc(-c2ccc(Cn3c(CC(C)(C)C(=O)O)c(SC(C)(C)C)c4cc(OCc5ccc(C)cn5)ccc43)cc2)cn1` [FIBOFLAPON], the interaction_types entry (gene ALOX5AP, ref DGIdb) was “inhibitor”.

Regarding `COc1cc(Nc2ncc(F)c(Nc3ccc4c(n3)N(COP(=O)(O)O)C(=O)C(C)(C)O4)n2)cc(OC)c1OC` [FOSTAMATINIB, reference compound], the interaction_types entry (gene EIF2AK2, ref DGIdb) was “inhibitor”; the interaction_types entry (gene FGR, ref DGIdb) is “inhibitor”; the interaction_types entry (gene GAK, drug-gene interaction listed in DGIdb export, ref DGIdb) is “inhibitor”; the interaction_types entry under setting [1] is “inhibitor”; the interaction_types result (gene PTK2B, ref DGIdb) is listed as “inhibitor”; the interaction_types entry (gene TAOK3, ref DGIdb) was “inhibitor”.

As to `COc1ccc(/C=C\c2cc(OC)c(OC)c(OC)c2)cc1OP(=O)(O)O` [FOS[…]], the interaction_types result (gene TUBA4A, ref DGIdb) is listed as “inhibitor”. As to `CC(OC(=O)NCC1(CC(=O)O)CCCCC1)OC(=O)C(C)C` (stereo not shown) [GABAPENTIN ENACARBIL, reference compound], the interaction_types result under setting [2] is “modulator”.

For `NCC1(CC(=O)O)CCCCC1` [GABAPENTIN, reference compound], the interaction_types entry under setting [2] is “modulator”. As for `C[C@]1(C(=O)N(CCCC(=O)O)Cc2cccc(Cl)c2)CCN1C(=O)c1csc2ccccc12` [GLPG-0974], the interaction_types result (gene FFAR2, ref DGIdb) is “antagonist”.

In the case of `O=c1nc(OC[C@@H]2COCCO2)cc2n1CCc1cc(C#CC3CC3)ccc1-2` [GLPG-1205], under “gene GPR84, ref DGIdb”, the interaction_types result is on record as “antagonist”. Turning to `N[C@@H](CCC(=O)N[C@@H](CS)C(=O)NCC(=O)O)C(=O)O` [GLUTATHIONE], the interaction_types result is “cofactor”. As for `Cl.N=C(N)N` [GUANIDINE HYDROCHLORIDE], the interaction_types entry (gene KCNH7, ref DGIdb) is “blocker”.

Take `Nc1nc2nc[nH]c2c(=O)[nH]1` [GUANINE]: the interaction_types entry (gene GCH1, ref DGIdb) is on record as “inhibitor”. In the case of `CCS(=O)(=O)Nc1ccc2c(c1)/C(=C(/Nc1ccc(CN3CCCCC3)cc1)c1ccccc1)C(=O)N2` [HESPERADIN], the interaction_types result is given as “inhibitor” under setting [1] and “inhibitor” (gene PTK2B, ref DGIdb). `NCCc1c[nH]cn1` [HISTAMINE]: the interaction_types entry is given as “activator”.

With `N[C@@H](Cc1c[nH]cn1)C(=O)O` [HISTIDINE], under “gene CA1, ref DGIdb”, the interaction_types result is reported as “activator”. For the molecule `NS(=O)(=O)c1cc2c(cc1Cl)NCNS2(=O)=O` [HYDROCHLOROTHIAZIDE, reference compound], the interaction_types entry (gene CA1, ref DGIdb) is “inhibitor”. For `NS(=O)(=O)c1cc2c(cc1C(F)(F)F)NCNS2(=O)=O` [HYDROFLUMETHIAZIDE], the interaction_types entry (gene CA1, ref DGIdb) was “inhibitor”.

Consider `C=CC(=O)N1CCC[C@@H](n2nc(-c3ccc(Oc4ccccc4)cc3)c3c(N)ncnc32)C1` [IBRUTINIB], for which the interaction_types entry under setting [1] is “inhibitor”.

Regarding `CCCCCCCN(CC)CCCC(O)c1ccc(NS(C)(=O)=O)cc1` (stereo not shown) [IBUTILIDE, reference compound], under “gene KCNH7, ref DGIdb”, the interaction_types entry was “inhibitor”. `Nc1ncc(-c2cnn(CCO)c2)c2scc(-c3ccc(NC(=O)Nc4cccc(F)c4)cc3)c12` [ILORASERTIB]: the interaction_types result (gene FGR, ref DGIdb) is reported as “inhibitor” and the interaction_types result under setting [1] is “inhibitor”. Regarding `CCC[C@@H](C)C[C@H](N)CC(=O)O` [IMAGABALIN], the interaction_types result under setting [2] was “modulator”. For `Nc1cc(-c2ccncc2)c[nH]c1=O` [INAMRINONE], the interaction_types entry (gene TNF, drug-gene interaction listed in DGIdb export, ref DGIdb) is recorded as “inhibitor”.

Regarding `O=C(Nc1ccncc1)C(=O)c1cn(Cc2ccc(Cl)cc2)c2ccccc12` [INDIBULIN], the interaction_types result (gene TUBA4A, ref DGIdb) was “inhibitor”. For the molecule `O=C1Nc2ccccc2/C1=C1/Nc2ccccc2C1=O` [INDIRUBIN], the interaction_types result is “substrate”. Turning to `CCc1c2c(nc3ccc(OC(=O)N4CCC(N5CCCCC5)CC4)cc13)-c1cc3c(c(=O)n1C2)COC(=O)[C@]3(O)CC` [IRINOTECAN, reference compound], where the note is “gene ISG15, ref DGIdb”, the interaction_types entry was “inhibitor”. For the molecule `CC(/C=C/[C@@H]1C[C@]1(C)c1ccc2c(c1)C(C)(C)CCC2(C)C)=C\C(=O)O` [IRX-4204], under “gene RXRB, ref DGIdb”, the interaction_types result is “agonist”. For `C/C(=C\c1csc(C)n1)[C@@H]1C[C@@H]2O[C@]2(C)CCC[C@H](C)[C@H](O)[C@@H](C)C(=O)C(C)(C)[C@@H](O)CC(=O)N1` [IXABEPILONE], the interaction_types result (gene TUBA4A, ref DGIdb) is “inhibitor”.

With `Cc1oncc1C(=O)Nc1ccc(C(F)(F)F)cc1` [LEFLUNOMIDE], the interaction_types entry (gene PTK2B, ref DGIdb) is “antagonist”. Take `N#Cc1ccc(C(c2ccc(C#N)cc2)n2cncn2)cc1` [LETROZOLE]: for the setting “gene CYP19A1, ref DGIdb”, the interaction_types result is recorded as “antagonist¦inhibitor”. Regarding `CCC[C@H](Nc1nc(-c2ccc(NC(=O)NCC)c(OC)c2)ncc1C)c1cccnc1` [LEXIBULIN], where the note is “gene TUBA4A, ref DGIdb”, the interaction_types entry was “inhibitor”. Take `CN(C)C(=O)C(CCN1CCC(O)(c2ccc(Cl)cc2)CC1)(c1ccccc1)c1ccccc1` [LOPERAMIDE]: the interaction_types result under setting [2] was “inhibitor”. With `CN(C)C(=N)N=C(N)N` [METFORMIN], under “gene PRKAB1, ref DGIdb”, the interaction_types entry is “activator¦inducer”. Consider `CC(=O)/N=c1/sc(S(N)(=O)=O)nn1C` [METHAZOLAMIDE], for which the interaction_types result (gene CA1, ref DGIdb) is listed as “inhibitor”. `COc1ccccc1OCC(O)COC(N)=O` (stereo not shown) [METHOCARBAMOL]: under “gene CA1, ref DGIdb”, the interaction_types entry is listed as “inhibitor”. As to `CN1C(CCl)Nc2cc(Cl)c(S(N)(=O)=O)cc2S1(=O)=O` (stereo not shown) [METHYCLOTHIAZIDE], under “gene CA1, ref DGIdb”, the interaction_types entry is listed as “inhibitor”. As for `C/C(=C\c1ccc(OCCN2CCOCC2)cc1)c1ccc2c(c1)C(C)(C)CCC2(C)C` [MOFAROTENE], the interaction_types result (gene RXRB, ref DGIdb) was “modulator”. `CN1CC[C@]23c4c5ccc(O)c4O[C@H]2[C@@H](O)C=C[C@H]3[C@H]1C5` [MORPHINE]: the interaction_types entry is “activator”. In the case of `O=C1C[C@@H](c2ccc(O)cc2)Oc2cc(O)cc(O)c21` [NARINGENIN], the interaction_types result (gene CYP19A1, ref DGIdb) is on record as “inhibitor”.

Consider `CCCc1c2oc(C(=O)O)cc(=O)c2cc2c(=O)cc(C(=O)O)n(CC)c12` [NEDOCROMIL, reference compound], for which, where the note is “gene FPR1, ref DGIdb”, the interaction_types entry is reported as “antagonist”. As for `CN1CCC[C@H]1c1cccnc1` [NICOTINE], the interaction_types entry is reported as “inhibitor”. For `COC(=O)c1ccc2c(c1)NC(=O)/C2=C(\Nc1ccc(N(C)C(=O)CN2CCN(C)CC2)cc1)c1ccccc1` [NINTEDANIB, reference compound], the interaction_types result (gene FGR, ref DGIdb) was “inhibitor” and the interaction_types entry under setting [1] is reported as “inhibitor”. Regarding `COC1=CC(c2cc3ccccc3[nH]2)=N/C1=C\c1[nH]c(C)cc1C` [OBATOCLAX MESYLATE], the interaction_types result (gene BCL2A1, ref DGIdb) is “inhibitor”.
